Test results taken from paper PMC10119930, “Dual Molecules Targeting 5-HT6 and GABA-A Receptors as a New Approach to Combat Depression Associated with Neuroinflammation” (ACS Chemical Neuroscience, 2023).

Legend:
[1] = tested on: BV-2 microglia cells; assay: Evaluation of microglia morphology by fluorescence microscopy (MitoTracker) after LPS; format: cell-based, mouse; settings: 10 μM pretreatment 1 h, LPS 18 h
[2] = Brain tissue stability assay; format: in vitro ADME; settings: brain homogenate in Tris-HCl buffer
Experimental: (§1) The quantitative HPLC analyses were acquired using Waters Alliance e2695 separations module (Waters, Milford, CT, USA) containing 2998 photodiode array (PDA), a detector (Waters, Milford, CT, USA), and the SpeedROD RP-18e 50–4.6 mm column (Merck, KGaA, Darmstadt, Germany). The temperature of the column was preserved at 30 °C. […] Each sample was injected at a volume of 10 μL in triplicate. […] The stock solutions were mixed with methanol and diluted, resulting in various solutions with concentrations ranging from 1.0 to 0.125 μg/mL. These solutions were then utilized to generate calibration curves by plotting AUC versus concentration in μg/mL. The examined molecules (2 mg) were dissolved in 1 mL of Dulbecco’s phosphate buffered saline (DPBS). The mixture was then continuously agitated at 22 °C for 24 h using a thermoshaker. Following this period, the mixtures were filtered through a cellulose acetate syringe filter (with a pore size of 0.22 μm), moved to a chromatographic vial, and analyzed. To quantify the investigated compounds, the areas beneath their respective peaks on DAD chromatograms were employed. Solubility was calculated using the calibration curves. Chemical stability assay: Stock solution of 16 in DMSO (10 mg/mL) was used. Next, 25 μL of stock solution was mixed with 975 μL of PBS (Dulbecco’s phosphate-buffered saline, Sigma, Poland). […] HPLC analyses were used to quantify the percentage of molecules that remained at each time point relative to the 0 min time point. Brain tissue stability assay: […] Then, 50 μL of the stock solution was combined with 50 μL of ice-cold 50 mM Tris-HCl buffer (pH 7.4) and 150 μL of brain homogenate (suspended in 20 volumes of 50 mM Tris-HCl buffer, ice cold, pH 7.4). The mix was then incubated at 37 °C and quenched at several time points. To terminate the reaction mixture, 250 μL of the appropriate reaction mixture was mixed with 1000 μL of MeCM in the Eppendorf Tube. Following 10 min of shaking (1500 rpm), samples were centrifuged (10 000 rpm, 10 min, 4 °C) and the acquired supernatant was collected. Before conducting HPLC analysis, the supernatant was filtered via a cellulose acetate syringe filter with a pore size of 0.45 μm and then transferred to a chromatographic vial. HPLC analysis was used to determine the percentage of the tested molecule remaining at each time point, relative to the 0 min time point. Plasma stability assay was performed as described previously.[45] Frozen rat plasma (Wistar) was thawed. […] The samples were collected at relative time points. The reaction was terminated by adding 1200 of μL acetonitrile/methanol mixture (50:50, v/v). The samples were centrifuge at 25 000 rpm for 10 min. HPLC analysis was used to determine the percentage of the tested molecule remaining at each time point relative to the 0 min time point. All the experiments were performed in duplicate.

[3] = target: muscimol site of the GABA-A receptor; assay: Radioligand binding assay for GABA-A receptor ([3H]muscimol displacement, rat brain homogenate); settings: competitive replacement of [3H]muscimol; ±S.E.M.
Experimental: The study was acquired according to the earlier protocols.[39] The rats’ brains were homogenized and prepared accurately according to the previous protocol.[39] On the day of the study, brain homogenates were thawed at room temperature and “diluted” in 20 volumes of ice-cold 50 mM Tris-HCl buffer (pH 7.4) and centrifuged (20.000g, 30 min, 0–4 °C). The assay was performed directly on 96-well microplates, which contained 50 mM Tris-HCl buffer (pH 7.4) in a total volume of 300 μL. Reaction mix included 240 μL of the brain tissue suspension, 30 μL of [^3H]-muscimol, and 30 μL solution of tested compounds (administrated at various concentrations: 10^–10–10^–5 M). […] The 96-well microplates containing the reaction mix were incubated for 10 min at 0 °C, followed by rapid filtration over glass fiber filters FilterMate B (PerkinElmer, USA) using the Harvester-96 MACH III FM (Tomtec, USA). The filter mats were dried using a microwave and then placed inside a plastic bag (PerkinElmer, USA). After that, they were soaked in 10 mL of Ultima Gold MV liquid scintillation cocktail (PerkinElmer, USA). […] Ki values were estimated according to the Cheng and Prusoff equation. The study was performed in duplicates. The statistical analysis was performed using (GraphPad Prism, version 4.0, San Diego, CA, USA).

[4] = Plasma stability assay; format: in vitro ADME, rat
Experimental: as §1

[5] = target: 5-HT6 receptor (Homo sapiens, UniProt P50406); assay: Radioligand binding assay for 5-HT6 receptor ([3H]-LSD displacement); parameters: expressed in transfected cells; host or cells: HEK-293 (cryopreserved membranes); settings: competitive replacement of [3H]-LSD; ±S.E.M.; read-out: 5-HT6R Ki
Experimental: To determine the affinity for 5-HT6, the cryopreserved membranes from HEK-293 cells stably transfected with the human recombinant 5-HT6 receptor were used.[40] Preparation of the tested compounds included preparation of stock solutions in DMSO (1 mM) and subsequent serial dilutions (10^–10–10^–5 M) of tested compounds in the appropriate buffer (50 mM Tris buffer, pH 7.4, 10 mM MgCl2, 0.5 mM ethylenediaminetetraacetic acid). The serial dilutions were acquired directly on a 96-well microplate. The reaction mix included 50 μL of appropriate concentration of tested molecule, 50 μL of [^3H]LSD 2.5/2.0 nM, and 150 μL of diluted membranes. The microplate containing the reaction mix was protected with a sealing tape and incubated for 60 min at 37 °C. Quenching of the reaction mixtire included: rapid filtration through UniFilter 96 GF/B filter microplate and rapid washes using 200 μL 50 mM assay buffer and vacuum manifold and 96-well pipettor. The collected microplates were dried overnight at 37 °C. The UniFilter bottoms were sealed, and then 30 μL of Betaplate Scint liquid scintillator (PerkinElmer) was added to each well. […] The obtained data were fit to a one-site curve-fitting equation using Prism 5 software (GraphPad Software), and the Ki values were determined using the Cheng–Prusoff equation. Radioligand binding was performed in duplicates.

[6] = Stability under radioligand binding assay conditions (incubation with brain tissue); format: in vitro ADME; settings: after 1 h of incubation with brain tissue
[7] = Chemical stability assay in PBS; format: physicochemical
Experimental: as §1

Chain of 5-HT6 receptor (P50406 whole entry): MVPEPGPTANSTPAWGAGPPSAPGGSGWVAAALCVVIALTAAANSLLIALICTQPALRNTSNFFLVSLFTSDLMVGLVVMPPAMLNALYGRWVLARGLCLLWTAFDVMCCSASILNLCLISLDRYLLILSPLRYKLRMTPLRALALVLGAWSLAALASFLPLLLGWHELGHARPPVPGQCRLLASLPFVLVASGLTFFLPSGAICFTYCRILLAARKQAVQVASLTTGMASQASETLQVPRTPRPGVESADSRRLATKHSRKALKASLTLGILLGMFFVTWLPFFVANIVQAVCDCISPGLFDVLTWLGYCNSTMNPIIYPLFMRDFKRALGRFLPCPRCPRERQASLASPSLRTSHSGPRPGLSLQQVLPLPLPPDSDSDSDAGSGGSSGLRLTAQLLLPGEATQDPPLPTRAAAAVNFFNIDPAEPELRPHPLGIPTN

Question: For `Cc1c(OCc2ccccc2)cccc1N1CCN(CCOC(=O)CCCN)CC1.Cl.Cl` [Compound 16, 1-(2-((4-Ammoniobutanoyl)oxy)ethyl)-4-(3-(benzyloxy)-2-methylphenyl)piperazin-1-ium Dichloride], which “mitochondrial membrane potential / morphology of microglia exposed to LPS” value [1] is on record?
Answer: protected the microglia from LPS insult

Question: And the “% compound remaining (brain homogenate)” value ([2]; 0 min)?
Answer: 100 ± 0.3%

Question: And the “% compound remaining (brain homogenate)” value ([2]; 15 min)?
Answer: 97.81 ± 2.1%

Question: And the “% compound remaining (brain homogenate)” value ([2]; 30 min)?
Answer: 92.56 ± 1.9%

Question: What about the “% compound remaining (brain homogenate)” value ([2]; 60 min) of the same compound?
Answer: 87.12 ± 3.2%

Question: And the “% compound remaining (brain homogenate)” value ([2]; 120 min)?
Answer: 49.73 ± 2.4%

Question: What about the “% compound remaining (brain homogenate)” value ([2]; 240 min) of the same compound?
Answer: 25.34 ± 1.6%

Question: What about the Ki [3] of the same compound?
Answer: 147 ± 12.7 nM

Question: And the “% compound remaining (rat plasma, 37 °C)” value ([4]; 0 min)?
Answer: 100 ± 0.1%

Question: And the “% compound remaining (rat plasma, 37 °C)” value ([4]; 15 min)?
Answer: 97.21 ± 0.8%

Question: What about the “% compound remaining (rat plasma, 37 °C)” value ([4]; 30 min) of the same compound?
Answer: 90.35 ± 1.4%

Question: What about the “% compound remaining (rat plasma, 37 °C)” value ([4]; 60 min) of the same compound?
Answer: 79.65 ± 2.5%

Question: What about the “% compound remaining (rat plasma, 37 °C)” value ([4]; 120 min) of the same compound?
Answer: 45.37 ± 2.2%

Question: What about the “% compound remaining (rat plasma, 37 °C)” value ([4]; 240 min) of the same compound?
Answer: 21.46 ± 1.2%

Question: What about the Ki [5] of the same compound?
Answer: 16 ± 0.4 nM

Question: And the “% of the compound remaining” value [6]?
Answer: 98.21%

Question: What about the “% compound remaining, rt” value ([7]; 0 min) of the same compound?
Answer: 100 ± 0.2%

Question: What about the “% compound remaining, rt” value ([7]; 15 min) of the same compound?
Answer: 98.43 ± 1.8%

Question: What about the “% compound remaining, rt” value ([7]; 30 min) of the same compound?
Answer: 94.23 ± 1.8%

Question: What about the “% compound remaining, rt” value ([7]; 60 min) of the same compound?
Answer: 92.46 ± 2.2%

Question: What about the “% compound remaining, rt” value ([7]; 120 min) of the same compound?
Answer: 86.63 ± 2.3%

Question: And the “% compound remaining, rt” value ([7]; 240 min)?
Answer: 62.21 ± 1.7%
